Results: patent US5540917A, “Biomass lipase inhibitor useful for treating adiposity” (Hoffmann-La Roche Inc., priority 1992, dated 1996)

Experiments:
[1] = test system: fat absorption; experiment: Fat absorption (C-14 triolein) in mice on fat diet, single and repeated administration of LOC; type: in vivo, Albino mice; settings: LOC 50 mg/kg body wt.
Description: Determination of the activity of a lipase inhibitor using the lipstatin derivative LOC defined above, by way of example, on the fat s absorption from the feed in the case of single and repeated administration to mice was undertaken.
3 Albino mice weighing 25 g were used per dose in the test.
The mice received over several days a so-called fat diet in which the fat content was adjusted such that the mice received 23.4 g of fat per kg body wt. per day. The mice were fed with this feed for 8 days. On days 3 to 6 of the test C-14, labelled triolein and LOC in a dose of 50 mg/kg body weight were admixed with this feed. The feces of the mice was collected at intervals of 24 hours from days 4 to 8 of the test and evaluated according to the guidelines given in Example 1.
The control animals each received the test diet without the LOC active substance.
The absorption of the orally administered fat was measured as in Examples 1, and 2.

[2] = test system: fat absorption; experiment: Mouse test: fat absorption (C-14 triolein), pure LST versus LST in a fermentation cake; type: in vivo; settings: oral, 3 mice
Experimental: Microbiologically-produced lipstatin (LST) is used as the lipase inhibitor in both parts of the test. LST is equivalent as a chemically pure substance with LST as a component of a fermentation cake produced according to Example 4 of EP 129 748. The content of LST in the cake was determined at 4 g of LST per kg of fresh fermentation cake using conventional analytical methods.
a) Mouse test Comparison of chemically pure LST with LST as a component of a fermentation cake.
Pure LST or the dried fermentation cake was suspended in 5% gum arabic/5% lactose preparation, conventional in pharmacological tests, and administered orally to animals, which had been pre-fasted for 24 hours, in an amount of 10 ml/kg per mouse immediately after a liquid test meal. The test meal contained 2.5% starch, 24% glucose, 12% lactose and 7.6% olive oil labelled with C-14 triolein. Thereafter, the mice received a conventional standard feed.
The calculation of the absorbed fat in the feed was carried out as described in Example 1.
The results of the test are reported in Table 3 in which the LST dose is calculated per mg/kg body weight. The values are average values calculated from measurements on, in each case, 3 mice per test.

[3] = test system: fat absorption; experiment: Dog test: fat absorption (C-14 triolein), LST in the fermentation cake alone or with cellulose; type: in vivo, dogs; settings: even when present in a fermentation cake; confirms mouse test
Description: Female dogs aged 7 to 15 years and having a body weight between 13 and 22 kg are divided into 2 groups each of 6 animals. The animals are fed with a standard dog food. The animals have free access to drinking water.
The animals are given a test meal on the day of the test. This test meal contains as feed components 7.5% protein, 19% is carbohydrate, 6% fat, 1.6% minerals, 45% water and 20% ballast materials. The fat of the feed consists of 58% olive oil treated with C-14 triolein. The remaining fat is composed predominantly of saturated fatty acids.
The absorption of the fat administered orally with the test diet was measured on the basis of the recovered radioactivity in the feces of the dogs. The difference between the orally-administered amount of C-14 labelled triolein and the radioactivity found in the feces within three days after intake of the test meal is considered to be absorbed fat. The absorbed amount is given as a percentage of the administered amount. The lower the absorption is, that is, the lower the percentage is, then the greater is the activity of the lipase inhibitor.
Microbiologically-produced lipstatin (LST) is used as the lipase inhibitor in both parts of the test. […] The content of LST in the cake was determined at 4 g of LST per kg of fresh fermentation cake using conventional analytical methods. […]

[4] = Blood plasma total glycerol in dogs after a test meal with THL and cellulose; type: in vivo; settings: 50 mg THL + 80 g cellulose
Description: Female dogs aged 7 to 15 years and having a body weight between 13 and 22 kg are divided into 2 groups each of 6 animals. The animals are fed with a standard dog food. The animals have free access to drinking water. The animals are given a test meal on the day of the test. This test meal contains as feed components 7.5% protein, 19% is carbohydrate, 6% fat, 1.6% minerals, 45% water and 20% ballast materials. The fat of the feed consists of 58% olive oil treated with C-14 triolein. The remaining fat is composed predominantly of saturated fatty acids. The blood plasma concentrations with respect to total glycerol of dogs which received test diet of 50 mg THL +80 g cellulose have been compared in Table 2 with those of a control without THL, but with cellulose.

[5] = Consistency of feces of the dogs; type: in vivo
[6] = test system: fat absorption; experiment: Fat absorption from test meal in dogs (C-14 triolein recovery in feces), THL with or without cellulose; type: in vivo; settings: for Triolein absorption in % of the applied dose: 26 g fat
Description: Female dogs aged 7 to 15 years and having a body weight between 13 and 22 kg are divided into 2 groups each of 6 animals. The animals are fed with a standard dog food. The animals have free access to drinking water. The animals are given a test meal on the day of the test. This test meal contains as feed components 7.5% protein, 19% is carbohydrate, 6% fat, 1.6% minerals, 45% water and 20% ballast materials. The fat of the feed consists of 58% olive oil treated with C-14 triolein. The remaining fat is composed predominantly of saturated fatty acids. The absorption of the fat administered orally with the test diet was measured on the basis of the recovered radioactivity in the feces of the dogs. The difference between the orally-administered amount of C-14 labelled triolein and the radioactivity found in the feces within three days after intake of the test meal is considered to be absorbed fat. The absorbed amount is given as a percentage of the administered amount. The lower the absorption is, that is, the lower the percentage is, then the greater is the activity of the lipase inhibitor.

Structure (SMILES): CCCCCCCCCCCCCCCCC[C@@H](C[C@@H]1OC(=O)[C@H]1CC)OC(=O)[C@H](CC(C)C)NC=O [LOC, N-formyl-L-leucine (S)-1-[[(2S,3S)-3-ethyl-4-oxo-2-oxetanyl]methyl]octadecyl ester]
- Triolein absorption in % of the amount given orally (±SDM) ([1]; 1st day): 26 ± 4%
- Triolein absorption in % of the amount given orally (±SDM) ([1]; 4th day): 26 ± 3%

Structure (SMILES): CCCCCCCCCCC[C@@H](C[C@@H]1OC(=O)[C@H]1CCCCCC)OC(=O)[C@H](CC(C)C)NC=O [pure LST, lipstatin]
- Triolein absorption in % per dose administered ([2]; LST dose 5.0 mg/kg): 69%
- Triolein absorption in % per dose administered ([2]; LST dose 15 mg/kg): 52%
- Triolein absorption in % per dose administered ([2]; LST dose 50.0 mg/kg): 41%
- lipase inhibitor activity [3]: very active lipase inhibitor

Structure (SMILES): CCCCCCCCCCC[C@@H](C[C@@H]1OC(=O)[C@H]1CCCCCC)OC(=O)[C@H](CC(C)C)NC=O [THL, tetrahydrolipstatin]
- Total plasma glycerol ([4]; 3 hrs. after administration): 0.5 ± 0.02 mmol/l ± SEM
- Total plasma glycerol ([4]; 7 hrs. after administration): 0.9 ± 0.13 mmol/l ± SEM
- Total plasma glycerol ([4]; before administration (starting value)): 0.7 ± 0.07 mmol/l ± SEM
- plasma glycerol increase ([4]; 3 hours after test meal): no increase
- increase in the absorption ([4]; 7 hours postprandial): slight increase
- consistency of the feces ([5]; THL in combination with cellulose): solid and formed
- consistency of the feces ([5]; THL without cellulose): rather pulp-like
- attenuated fat absorption ([6]; 50 mg THL + 80 g cellulose): 28%
- Triolein absorption in % of the applied dose ([6]; THL 20 mg/test meal (1.5 mg/kg body wt.) + 80 g cellulose, 420 g test meal): 48%
- Triolein absorption in % of the applied dose ([6]; THL 20 mg/test meal (1.5 mg/kg body wt.), no cellulose, 340 g test meal): 70%
- Triolein absorption in % of the applied dose ([6]; THL 50 mg/test meal (4 mg/kg body wt.) + 80 g cellulose, 420 g test meal): 28%
- Triolein absorption in % of the applied dose ([6]; THL 50 mg/test meal (4 mg/kg body wt.), no cellulose, 340 g test meal): 63%
- activity of the lipase inhibitor when cellulose is added ([6]; THL + cellulose versus THL alone): considerably increased
- inhibition of the absorption of the administered radioactively labelled fat in the feed ([6]; THL after addition of cellulose (about)): 52-70%
- reduction of the absorption of fat contained in the feed ([6]; THL as sole additive to the test meal, depending on the dose (20 or 50 mg/meal)): 30-37%
